Laboratory results taken from US20120040930A1, “TETRACYCLIC TERPENE SERIES COMPOUNDS, METHODS FOR PREPARING SAME, USES THEREOF AS MEDICINES AND PHARMACEUTICAL COMPOUNDS CONTAINING SAME” (priority 2005, published 2012).
pIC50: −log10 of the molar value. Values joined by “and” are separate entries in the source; they are usually repeats but may differ in a detail not shown here. Equal entries are not always repeated. Where two headings read alike, the source gives them in different places.

Experiments:
[1] = biological target: T1, acetylcholinesterase (AChE) isolated from Electrophorus electricus (Electrophorus electricus, UniProt O42275); experiment: biochemical
T1 construct: AChE isolated from Electrophorus electricus; from tissue
T1 sequence (O42275 24-633): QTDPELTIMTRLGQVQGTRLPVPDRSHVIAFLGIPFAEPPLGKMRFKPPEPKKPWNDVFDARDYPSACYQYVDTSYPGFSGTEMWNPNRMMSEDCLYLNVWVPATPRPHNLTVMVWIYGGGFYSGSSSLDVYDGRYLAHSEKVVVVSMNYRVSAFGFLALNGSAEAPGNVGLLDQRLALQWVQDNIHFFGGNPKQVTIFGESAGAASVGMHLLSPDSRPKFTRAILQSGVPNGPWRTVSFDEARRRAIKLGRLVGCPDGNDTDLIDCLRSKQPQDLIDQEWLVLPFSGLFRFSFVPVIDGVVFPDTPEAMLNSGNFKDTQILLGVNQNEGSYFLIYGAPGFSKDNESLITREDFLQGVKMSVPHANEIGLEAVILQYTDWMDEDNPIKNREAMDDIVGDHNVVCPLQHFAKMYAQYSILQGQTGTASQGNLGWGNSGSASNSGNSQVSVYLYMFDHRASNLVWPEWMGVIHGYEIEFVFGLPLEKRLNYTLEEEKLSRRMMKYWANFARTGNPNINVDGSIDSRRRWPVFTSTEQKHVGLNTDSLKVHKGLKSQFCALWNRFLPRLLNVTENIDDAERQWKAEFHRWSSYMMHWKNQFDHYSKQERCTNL

[2] = biological target: T2, human serum butyrylcholinesterase (BChE) (Homo sapiens, UniProt P06276); experiment: biochemical
T2 construct: BChE isolated from human serum; from tissue; host or cells: human serum
T2 sequence (P06276 29-602): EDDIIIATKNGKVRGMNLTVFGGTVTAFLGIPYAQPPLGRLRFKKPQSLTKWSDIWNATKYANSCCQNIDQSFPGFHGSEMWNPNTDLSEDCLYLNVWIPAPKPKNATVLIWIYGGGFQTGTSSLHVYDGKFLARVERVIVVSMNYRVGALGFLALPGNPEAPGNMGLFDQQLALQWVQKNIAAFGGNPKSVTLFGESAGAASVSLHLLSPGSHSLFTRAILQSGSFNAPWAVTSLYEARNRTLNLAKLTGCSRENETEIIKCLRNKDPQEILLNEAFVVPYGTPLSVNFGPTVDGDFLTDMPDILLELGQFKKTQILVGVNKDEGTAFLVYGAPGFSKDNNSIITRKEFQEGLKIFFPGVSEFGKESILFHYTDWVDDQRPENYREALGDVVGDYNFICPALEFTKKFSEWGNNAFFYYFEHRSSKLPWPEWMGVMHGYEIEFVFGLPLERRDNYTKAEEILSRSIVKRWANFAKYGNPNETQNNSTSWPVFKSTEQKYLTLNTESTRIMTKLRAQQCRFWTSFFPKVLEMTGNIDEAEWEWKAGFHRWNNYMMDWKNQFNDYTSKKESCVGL

[3] = human serum BChE, read-out: BChE
[4] = AChE isolated from Electrophorus electricus, read-out: AChE IC50

SMILES | pIC50 ([1]; AChE IC50) | pIC50 [2, 3] | pIC50 [1, 4] | pIC50 [2]
CCC(C)C(=O)N[C@H]1CC=C2C[C@H]3C(=O)C[C@]4(C)[C@@H]([C@H](C)N(C)C)[C@H](O)C[C@@]4(C)[C@@H]3CC[C@H]2[C@]1(C)CO (mixture of isomers) [Compound 7h, (20S)-10(9->1)abeo-4α-hydroxymethyl-4,14α-dimethyl-20-dimethylamino-3 (2-methylbutyrylamino)-5α,9-pregn-1(10)-en-16α-ol-11-one] | 6.92 | 5.72 |  | 
CCC(C)C1=N[C@H]2CC=C3C[C@H]4C(=O)C[C@]5(C)[C@@H]([C@H](C)N(C)C)[C@H](O)C[C@@]5(C)[C@@H]4CC[C@H]3[C@]2(C)CO1 (mixture of isomers) [Compound 8h, (20S)-10(9->1)abeo-4,14α-dimethyl-20-dimethylamino(2′-(1-methylpropyl)-4′,4′ dihydro[3′,1′]oxazin)-5α,9-pregn-1(10)-en-16α-ol-11-one] |  | 5.81 | 7.57 | 
CC(C)C(=O)NC1CC[C@]23CC24C(=O)C[C@]2(C)[C@@H]([C@H](C)N(C)C)[C@H](O)C[C@@]2(C)[C@@H]4CC[C@H]3[C@]1(C)CO (stereo in doubt) [Compound 2, (20S)-3-isobutyrylamino-9,19-cyclo-4α-hydroxymethyl-4,14α-dimethyl-20-dimethylamino-5α,9-pregnan-16α-ol-11-one] | < 5.00 | < 5.00 |  | 
CC(C)C1=NC2CC=C3C[C@H]4C(=O)C[C@]5(C)[C@@H]([C@H](C)N(C)C)[C@H](O)C[C@@]5(C)[C@@H]4CC[C@H]3[C@]2(C)CO1 (stereo partly drawn) [Compound 1, (20S)-10(9->1)abeo-4,14α-dimethyl-20-dimethylamino-(2′-isopropyl-4′,4′-dihydro[3′,1′]oxazine)-5α,9-pregn-1(10)-en-16α-ol-11-one] |  | < 6.00 | 7.51 and 7.49 | 
CC(C)C(=O)N[C@H]1CC=C2C[C@H]3C(=O)C[C@]4(C)[C@@H]([C@H](C)N(C)C)[C@H](O)C[C@@]4(C)[C@@H]3CC[C@H]2[C@]1(C)CO [Compound 3, (20S)-10(9->1)abeo-4α-hydroxymethyl-3-isobutyrylamino-4,14α-dimethyl-20-dimethylamino-5α,9-pregn-1(10)-en-16α-ol-11-one] |  | 5.13 |  | 
C[C@@H]([C@H]1[C@H](O)C[C@@]2(C)[C@@H]3CC[C@H]4[C@](C)(CO)[C@@H](N)CC[C@@]45CC35C(=O)C[C@]12C)N(C)C (stereo partly drawn) [Compound 5, (20S)-3-amino-9,19-cyclo-4α-hydroxymethyl-4,14α-dimethyl-20-dimethylamino-5α,9-pregnan-16α-ol-11-one] |  | < 4.52 | < 5.30 | 
C[C@@H]([C@H]1[C@H](O)C[C@@]2(C)[C@@H]3CC[C@H]4[C@](C)(CO)[C@@H](NC(=O)c5ccccc5)CC[C@@]45CC35C(=O)C[C@]12C)N(C)C (stereo partly drawn) [Compound 6b, (20S)-3-benzoylamino-9,19-cyclo-4α-hydroxymethyl-4,14α-dimethyl-20-dimethylamino-5α,9-pregnan-16α-ol-11-one] |  | 5.65 | < 5.00 | 
C[C@@H]([C@H]1[C@H](O)C[C@@]2(C)[C@@H]3CC[C@@H]4C5(CC[C@H](NC(=O)C6CCCCC6)[C@@]4(C)CO)C[C@@]35C(=O)C[C@]12C)N(C)C (stereo partly drawn) [Compound 6d, (20S)-3-(cyclohexanecarboxylamino)-9,19-cyclo-4α-hydroxymethyl-4,14α-dimethyl-20-dimethylamino-5α,9-pregnan-16α-ol-11-one] |  | < 5.30 | < 5.00 | 
CCC(C)C(=O)N[C@H]1CCC23C[C@]24C(=O)C[C@]2(C)[C@@H]([C@H](C)N(C)C)[C@H](O)C[C@@]2(C)[C@@H]4CC[C@H]3[C@]1(C)CO (stereo partly drawn) [Compound 6h, (20S)-9,19-cyclo-4α-hydroxymethyl-4,14α-dimethyl-20-dimethylamino-3 (2-methylbutyrylamino)-5α,9-pregnan-16α-ol-11-one] |  | 6.92 | < 4.00 | 
C[C@@H]([C@H]1[C@H](O)C[C@@]2(C)[C@@H]3CC[C@@H]4C(=CC[C@H](NC(=O)c5ccccc5)[C@@]4(C)CO)C[C@H]3C(=O)C[C@]12C)N(C)C [Compound 7b, (20S)-10(9->1)abeo-3-benzoylamino-4α-hydroxymethyl-4,14α-dimethyl-20-dimethylamino-5α,9-pregn-1(10)-en-16α-ol-11-one] |  | 5.73 | < 5.00 | 
CCC(=O)N[C@H]1CC=C2C[C@H]3C(=O)C[C@]4(C)[C@@H]([C@H](C)N(C)C)[C@H](O)C[C@@]4(C)[C@@H]3CC[C@H]2[C@]1(C)CO [Compound 7c, (20S)-10(9->1)abeo-4α-hydroxymethyl-4,14α-dimethyl-20-dimethylamino-3-propionylamino-5α,9-pregn-1(10)-en-16α-ol-11-one] |  | < 5.00 | < 6.00 | 
C[C@@H]([C@H]1[C@H](O)C[C@@]2(C)[C@@H]3CC[C@@H]4C(=CC[C@H](NC(=O)C5CCCCC5)[C@@]4(C)CO)C[C@H]3C(=O)C[C@]12C)N(C)C [Compound 7d, (20S)-10(9->1)abeo-3-(cyclohexanecarboxyamino)-4α-hydroxymethyl-4,14α-dimethyl-20-dimethylamino-5α,9-pregn-1(10)-en-16α-ol-11-one] |  | 5.40 | < 6.00 | 
CCC(C)C(=O)N[C@H]1CC=C2C[C@H]3C(=O)C[C@]4(C)[C@@H]([C@H](C)N(C)C)[C@H](O)C[C@@]4(C)[C@@H]3CC[C@H]2[C@]1(C)CO (stereo partly drawn) [Compound 7e, (20S)-10(9->1)abeo-4α-hydroxymethyl-4,14α-dimethyl-20-dimethylamino-3 (S-2-methylbutyrylamino)-5α,9-pregn-1(10)-en-16α-ol-11-one] | 6.98 | < 5.00 |  | 
C[C@@H]([C@H]1[C@H](O)C[C@@]2(C)[C@@H]3CC[C@@H]4C(=CC[C@H](NC(=O)C(C)(C)C)[C@@]4(C)CO)C[C@H]3C(=O)C[C@]12C)N(C)C [Compound 7f, (20S)-10(9->1)abeo-4α-hydroxymethyl-4,14α-dimethyl-20-dimethylamino-3 (2,2-dimethylpropionylamino)-5α,9-pregn-1(10)-en-16α-ol-11-one] |  | < 6.00 | 5.32 | 
C[C@@H]([C@H]1[C@H](O)C[C@@]2(C)[C@@H]3CC[C@@H]4C(=CC[C@H](NC(=O)Cc5ccccc5)[C@@]4(C)CO)C[C@H]3C(=O)C[C@]12C)N(C)C [Compound 7g, (20S)-10(9->1)abeo-4α-hydroxymethyl-4,14α-dimethyl-20-dimethylamino-3 (phenylacetylamino)-5α,9-pregn-1(10)-en-16α-ol-11-one] |  | < 5.00 | < 6.00 | 
C[C@@H]([C@H]1[C@H](O)C[C@@]2(C)[C@@H]3CC[C@@H]4C(=CC[C@@H]5N=C(C6CCCCC6)OC[C@]54C)C[C@H]3C(=O)C[C@]12C)N(C)C [Compound 8d, (20S)-10(9->1)abeo-4,14α-dimethyl-20-dimethylamino(2′-cyclohexyl-4′,4′-dihydro[3′,1′]oxazin)-5α,9-pregn-1(10)-en-16α-ol-11-one] |  | 6.43 | 6.39 | 
C[C@@H]([C@H]1[C@H](O)C[C@@]2(C)[C@@H]3CC[C@@H]4C(=CC[C@@H]5N=C(Cc6ccccc6)OC[C@]54C)C[C@H]3C(=O)C[C@]12C)N(C)C [Compound 8g, (20S)-10(9->1)abeo-4,14α-dimethyl-20-dimethylamino-(2′-(1-benzyl)-4′,4′-dihydro[3′,1′]oxazine)-5α,9-pregn-1(10)-en-16α-ol-11-one] |  | < 5.00 |  | 
CCC(CC)C1=N[C@H]2CC=C3C[C@H]4C(=O)C[C@]5(C)[C@@H]([C@H](C)N(C)C)[C@H](O)C[C@@]5(C)[C@@H]4CC[C@H]3[C@]2(C)CO1 [Compound 8i, (20S)-10(9->1)abeo-4,14α-dimethyl-20-dimethylamino(2′-(1-ethylpropyl)-4′,4′-dihydro[3′,1′]oxazin)-5α,9-pregn-1(10)-en-16α-ol-11-one] |  | 6.42 |  | 
CC(C)[C@H]1N[C@H]2CCC34C[C@]35C(=O)C[C@]3(C)[C@@H]([C@H](C)N(C)C)[C@H](O)C[C@@]3(C)[C@@H]5CC[C@H]4[C@]2(C)CO1 (stereo partly drawn) [Compound 9, (20S)-9,19-cyclo-4,14α-dimethyl-20-dimethylamino(2′β-isopropyl-1′,2′,4′,4′-tetrahydro[3′,1′]oxazin)-5α,9-pregnan-16α-ol-11-one] |  |  | 5.62 | < 5.00
C[C@@H]([C@H]1[C@H](O)C[C@@]2(C)[C@@H]3CC[C@@H]4C(=CC[C@H](N)[C@@]4(C)CO)C[C@H]3C(=O)C[C@]12C)N(C)C [Compound 11, (20S)-10(9->1)abeo-3-amino-4α-hydroxymethyl-4,14α-dimethyl-20-dimethylamino-5α,9-pregn-1(10)-en-16α-ol-11-one] |  | < 5.00 | 5.82 | 
CC(=O)O[C@@H]1C[C@@]2(C)[C@@H]3CC[C@@H]4C5(CC[C@H](NC(=O)C(C)C)[C@@]4(C)CO)C[C@@]35C(=O)C[C@]2(C)[C@H]1[C@H](C)N(C)C (stereo partly drawn) [Compound 13, (20S)-16α-acetyl-3-isobutyrylamino-9,19-cyclo-4α-hydroxymethyl-4,14α-dimethyl-20-dimethylamino-5α,9-pregnan-11-one] |  | < 6.00 | < 5.00 | 
CC(=O)O[C@@H]1C[C@@]2(C)[C@@H]3CC[C@@H]4C5(CC[C@H](NC(=O)C(C)C)[C@@]4(C)C=O)C[C@@]35C(=O)C[C@]2(C)[C@H]1[C@H](C)N(C)C (stereo partly drawn) [Compound 14, (20S)-16α-acetyl-3-isobutyrylamino-9,19-cyclo-4α-formyl-4,14α-dimethyl-20-dimethylamino-5α,9-pregnan-11-one] |  | < 6.00 | < 6.00 | 
CC(C)C(=O)N[C@H]1CCC23C[C@]24C(=O)C[C@]2(C)[C@@H]([C@H](C)N(C)C)[C@H](OC(=O)C(C)(C)C)C[C@@]2(C)[C@@H]4CC[C@H]3[C@]1(C)/C=N/Cc1ccccc1 (stereo partly drawn) [Compound 19, (20S)-16α-pivalyl-3-isobutyrylamino-9,19-cyclo-4α-benzyliminomethyl-4,14α-dimethyl-20-dimethylamino-5α,9-pregnan-11-one] |  | 5.89 | < 6.00 | 
